# From US4434290A, “Pyrido (4,3-B) carbazoles substituted in the 1 position by a polyamine chain” (priority 1978, dated 1984)
# Tests used:
# leukemia L1210 = experiment: Leukemia L1210 in vivo, effect of the day of inoculation (Table XIII); parameters: species or system mice; settings: 15 mg/kg; for Death interval / ILS % / Mean survival time: 10^5 cells; for Surviving mice: groups of 6 mice
# Experimental: The properties were determined by the curative action inoculated experimental leukemia L1210. This leukemia was maintained on B6 D2 Fl (C 57 Bl/6×DBA/2) Fl mice in the proportion of 6 or 10 mice per experimental batch. The compounds to be tested were injected by the intraperitoneal route one or several days after inoculation of the cells (1 injection only). The death interval was determined, the first figure of the Table indicating the date of the first mouse death and the second the date of the last mouse death. The mean survival time was also measured (MST). A characteristic value is the percentage of increased life span (ILS %).
# S^c =survival of control animals.
# As in the above test the death interval was determined, the mean survival time (MST) was measured and the percentage of increased life span (ILS %) was calculated.
# [1] = test system: cells of viro-induced leukemia of Friend; experiment: In vitro cytotoxic study on cells of the Friend leukemia of the mouse (Table XV); format: cell-based
# Experimental: "In vitro" cytotoxic study of the compounds of the invention on the cells of viro-induced leukemia of Friend in the mouse [J. Exp. Med. 1957, 105, p. 307-318].
# The cells were grown in suspension in the RPMI 1640 medium [catalogue of GIBCO Bio-Cult-Ltd, Washington Road Sandyford Industrial Estate Paisley PA3 4EP Renfrewshire Scotland] supplement with 20% of embryonary calf serum, with penicillin and with streptopycin. The duplication time of the culture was about 11 hours. The growth factor is equal to 1 or very close to 1 (all the cells multiplying).
# The cultures were seeded at times t=0 at the concentration of 2×10^5 cells per ml in Falcon dishes containing 4 ml of medium. 24 hours later, the product to be tested (in solution, in acetic water) was added, at the moment when the cells were in the exponential growth phase. 24 hours after the addition of the product, the cells were counted and the percentage of living cells determined by an exclusion test with trypan blue.
# L1210 cells = experiment: In vitro cytotoxic study on leukemia L1210 cells, complete inhibition of growth (Table XVI); format: cell-based
# Experimental: Cytotoxic "in vitro" study on hamster cells on leukemia L1210 cells of the serie.
# After 5 hours, the cells were attached to a plastic support and the products to be tested whose solutions had been formed in water or in DMSO (dimethylsulphoxide) if the product was little soluble in water, was added. In the latter case a control was carried out with the same final concentration of DMSO in the culture medium.
# The state of the cells was examined 24, 48 and 72 hours later.
# In the case of the L1210 cells, the tests were carried out in a medium gelled with agarose, the L1210 cells growing in suspension.
# [2] = test system: virus of Friend's leukemia (VFA); experiment: Friend's leukemia, measurement of splenomegaly (Table XVII); format: in vivo, DBA2 male mice; settings: for Mean weight of the spleen: 10 mg/kg (0.2 mg/mouse), day +15; for Mean weight of the spleen / Number of leukemic mice: D + 1; for Number of leukemic mice: 10 mg/kg, spleen >250 mg
# From the text: (§1) The following experiments related to the treatment of mice inoculated by the virus of Friend's leukemia.
# (§2) In these experiments DBA2, male mice, aged from 2 to 3 months, of weight around 20 g, were used.
# (§3) An anemia inducing strain of Friend's virus (VFA) maintained for several years in the laboratory was used. The viral stock was constituted by an acellular supernatant liquor obtained by the centrifugation of a ground product of leukemic spleens, carried out in an 0.5 M PBS-saccharose solution. The assay of the stock was done in vivo by the method described by JASMIN et al [J. Nat. Cancer Inst. 1974,53, 469-474]. The measurement is expressed in SD50 (50% spleen enlarging dose).
# The Friend virus was injected in the mouse by the intraperitoneal route. […] The spleens were removed and then weighed individually.
# Friend's virus (VFA) [3] = experiment: Anemia inducing Friend's virus, measurement of survival time (Table XVIII); format: in vivo, mice; settings: 15 mg/kg; for Death interval / Mean survival time / ILS %: D+1
# From the text: as §1, §2, §3
# In another series of tests, the mortality of the mice, in which the Friend's virus was injected (VFA) by the intraperitoneal route (dilution 1/800) and the death intervalwere determined, the mean survival time and the percentage of increased life span for the compound 27 according to the invention inoculated on day D+1 at the dose of 15 mg/kg were calculated.
# Friend's virus (VFA) [4] = experiment: Anemia inducing Friend's virus, dose/effect relationship (Table XIX); format: in vivo, mice; settings: for Death interval / ILS % / Mean survival time: VFA 1/800, D+1; for Surviving mice: groups of 10 mice
# From the text: as §1, §2, §3
# Experimental groups of 10 mice were used, into which the VFA virus (dilution 1/800-% of leukemias=100%) was injected on day Do. The compound 27 according to the invention was then injected at day D+1 at various doses according to the groups and the death interval, the mean survival time and the percentage of increased life span were determined.
# [5] = VFA 1/800, % of leukemias = 99.8
# [6] = VFA 1/800, % of leukemias = 100%
smiles,measurement,setting,value
CCN(CC)CCCNc1nccc2c(C)c3[nH]c4ccc(OC)cc4c3c(C)c12 [Compound 27],activity by day of inoculation,leukemia L1210,more active one day after inoculation of the cells
same,Death interval,leukemia L1210; D+1,15-29
same,ILS %,leukemia L1210; D+1,82.6%
same,Mean survival time,leukemia L1210; D+1,21
same,Death interval,leukemia L1210; D+2,15-35
same,ILS %,leukemia L1210; D+2,88.7%
same,Mean survival time,leukemia L1210; D+2,21.7
same,Death interval,leukemia L1210; D+3,13-25
same,ILS %,leukemia L1210; D+3,56.5%
same,Mean survival time,leukemia L1210; D+3,18
same,Death interval,leukemia L1210; D+4,14-20
same,ILS %,leukemia L1210; D+4,39.1%
same,Mean survival time,leukemia L1210; D+4,16
same,Death interval,leukemia L1210; Do(+3h),16-25
same,ILS %,leukemia L1210; Do(+3h),80%
same,Mean survival time,leukemia L1210; Do(+3h),20.7
same,Surviving mice,leukemia L1210; D+1,2 mice
same,Surviving mice,leukemia L1210; D+2,0 mice
same,Surviving mice,leukemia L1210; D+3,0 mice
same,Surviving mice,leukemia L1210; D+4,0 mice
same,Surviving mice,leukemia L1210; Do(+3h),0 mice
same,IC50,"[1]; Mus musculus, 24 h, read-out: LD 50 (50% lethal dose)",450 nM
same,IC100,"[1]; Mus musculus, 24 h, read-out: LD 100 (100% lethal dose)",1.2 µM
same,LD 50 HUM / LD 50 product,[1]; ratio to reference HUM,0.65
same,"IC (100 (complete growth inhibition, minimal))","L1210 cells; Mus musculus, L1210, medium gelled with agarose, read-out: Minimal dose leading to a complete inhibition of the growth",0.6 µM
same,activity compared with the reference BD40,L1210 cells; summary of Table XVI,almost as active as the reference dipyrido-indole (BD40)
same,protective power on Friend's leukemia,"[2]; mouse, in vivo",has a protective power on Friend's leukemia
same,Mean weight of the spleen,[2]; virus dilution 1/800,183 mg
same,Number of leukemic mice,[2]; virus dilution 1/800,2/10
same,Mean weight of the spleen,[2]; virus dilution 1/1600,199 mg
same,Number of leukemic mice,[2]; virus dilution 1/1600,0/5
same,Mean weight of the spleen,[2]; virus dilution 1/3200,220 mg
same,Number of leukemic mice,[2]; virus dilution 1/3200,1/5
same,Death interval,Friend's virus (VFA) [3]; [5],20-64
same,Mean survival time,Friend's virus (VFA) [3]; [5],42.2
same,ILS %,"Friend's virus (VFA) [3]; VFA 1/800, % of leukemias = 99.8, on the surviving mice",40%
same,Survive,"Friend's virus (VFA) [3]; VFA 1/800, % of leukemias = 99.8, group of 10 mice",0
same,Death interval,Friend's virus (VFA) [3]; [6],48-72
same,ILS %,Friend's virus (VFA) [3]; [6],143.85%
same,Mean survival time,Friend's virus (VFA) [3]; [6],59.5
same,deaths through toxicity,"Friend's virus (VFA) [4]; 15 mg/kg, group of 10 mice",Two
same,dose/effect relationship,Friend's virus (VFA) [4]; 5-15 mg/kg,proportional to the inoculated dose
same,Death interval,Friend's virus (VFA) [4]; 5 mg/kg,25-36
same,ILS %,Friend's virus (VFA) [4]; 5 mg/kg,31.78%
same,Mean survival time,Friend's virus (VFA) [4]; 5 mg/kg,31.1
same,Death interval,Friend's virus (VFA) [4]; 10 mg/kg,32-64
same,ILS %,Friend's virus (VFA) [4]; 10 mg/kg,103%
same,Mean survival time,Friend's virus (VFA) [4]; 10 mg/kg,45.8
same,Death interval,Friend's virus (VFA) [4]; 15 mg/kg,33-63
same,Mean survival time,Friend's virus (VFA) [4]; 15 mg/kg,49.9
same,ILS %,"Friend's virus (VFA) [4]; 15 mg/kg, toxic deaths excluded",122%
same,Surviving mice,Friend's virus (VFA) [4]; 5 mg/kg,0 mice
same,Surviving mice,Friend's virus (VFA) [4]; 10 mg/kg,0 mice
same,Surviving mice,Friend's virus (VFA) [4]; 15 mg/kg,0 mice
